From the supplement of paper PMC10307832

Tests used:
Experiment in all cases: relative viability (nuclei count vs DMSO), 5 days (fraction); higher = more cells survive
Dovitinib + Linsitinib = compound: CN1CCN(c2ccc3nc(-c4c(N)c5c(F)cccc5[nH]c4=O)[nH]c3c2)CC1 [Dovitinib] + C[C@]1(O)C[C@@H](c2nc(-c3ccc4ccc(-c5ccccc5)nc4c3)c3c(N)nccn32)C1 [Linsitinib] (partner 1 µM)
In short: (§1)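 One day after seeding in 1536-well plates, lung cancer cell lines were dosed by pin tool. Dosing was either single-drug or a fixed anchor-drug dose plus five library-drug doses (not always all listed) in √10 steps. After 5 days, nuclei were stained in one fix-and-stain step and counted on 4× images, and relative viability is the nuclei count of treated wells over that of vehicle wells, given as the median of duplicate plates.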

Dovitinib + Navitoclax = compound: CN1CCN(c2ccc3nc(-c4c(N)c5c(F)cccc5[nH]c4=O)[nH]c3c2)CC1 [Dovitinib] + CC1(C)CCC(c2ccc(Cl)cc2)=C(CN2CCN(c3ccc(C(=O)NS(=O)(=O)c4ccc(N[C@H](CCN5CCOCC5)CSc5ccccc5)c(S(=O)(=O)C(F)(F)F)c4)cc3)CC2)C1 [Navitoclax] (partner 0.5 µM)
In short: as §1

Dovitinib + Vorinostat = compound: CN1CCN(c2ccc3nc(-c4c(N)c5c(F)cccc5[nH]c4=O)[nH]c3c2)CC1 [Dovitinib] + O=C(CCCCCCC(=O)Nc1ccccc1)NO [Vorinostat] (partner 1 µM)
In short: as §1

Dovitinib + Pemetrexed = compound: CN1CCN(c2ccc3nc(-c4c(N)c5c(F)cccc5[nH]c4=O)[nH]c3c2)CC1 [Dovitinib] + Nc1nc2[nH]cc(CCc3ccc(C(=O)N[C@@H](CCC(=O)O)C(=O)O)cc3)c2c(=O)[nH]1 [Pemetrexed] (partner 0.2 µM)
In short: as §1

Cell Line	relative viability (Dovitinib + Linsitinib; first compound 0.02 µM)	relative viability (Dovitinib + Linsitinib; first compound 0.06325 µM)	relative viability (Dovitinib + Linsitinib; first compound 0.2 µM)	relative viability (Dovitinib + Linsitinib; first compound 0.6325 µM)	relative viability (Dovitinib + Linsitinib; first compound 2 µM)	relative viability (Dovitinib + Navitoclax; first compound 0.02 µM)	relative viability (Dovitinib + Navitoclax; first compound 0.06325 µM)	relative viability (Dovitinib + Navitoclax; first compound 0.2 µM)	relative viability (Dovitinib + Navitoclax; first compound 0.6325 µM)	relative viability (Dovitinib + Navitoclax; first compound 2 µM)	relative viability (Dovitinib + Vorinostat; first compound 0.02 µM)	relative viability (Dovitinib + Vorinostat; first compound 0.06325 µM)	relative viability (Dovitinib + Vorinostat; first compound 0.2 µM)	relative viability (Dovitinib + Vorinostat; first compound 0.6325 µM)	relative viability (Dovitinib + Vorinostat; first compound 2 µM)	relative viability (Dovitinib + Pemetrexed; first compound 0.02 µM)	relative viability (Dovitinib + Pemetrexed; first compound 0.06325 µM)	relative viability (Dovitinib + Pemetrexed; first compound 0.2 µM)	relative viability (Dovitinib + Pemetrexed; first compound 0.6325 µM)	relative viability (Dovitinib + Pemetrexed; first compound 2 µM)
LOU-NH91	0.984	0.915	0.968	1	1.05	0.687	0.72	0.684	0.7	0.804	0.961	0.846	0.919	0.984	0.94	0.368	0.386	0.404	0.363	0.358
LU99A	0.482	0.571	0.521	0.515	0.506	0.78	0.787	0.747	0.774	0.727	0.456	0.555	0.46	0.615	0.624	0.169	0.304	0.165	0.217	0.18
LXF-289	0.907	0.942	0.935	0.939	0.878	0.909	0.929	0.945	0.941	0.858	0.781	0.836	0.807	0.847	0.746	0.883	0.893	0.864	0.962	0.894
NCI-H23	0.546	0.664	0.623	0.57	0.506	0.83	0.759	0.769	0.908	0.764	0.551	0.699	0.616	0.735	0.643	0.79	0.592	0.623	0.674	0.658
NCI-H322M	0.945	0.853	0.973	0.943	0.892	1.17	1.25	1.21	1.27	1.23	0.768	0.831	0.807	0.926	0.84	0.597	0.613	0.634	0.607	0.6
NCI-H441	0.512	0.537	0.541	0.599	0.499	0.665	0.54	0.911	0.572	0.775	0.76	0.795	0.849	0.628	0.772	0.257	0.266	0.296	0.271	0.24
NCI-H460	0.758	0.904	0.834	0.74	0.777	0.961	1.14	1.02	1.08	1.14	0.682	0.77	0.729	0.711	0.711	0.0606	0.0581	0.0649	0.0683	0.0626
NCI-H520	0.832	0.964	0.986	0.868	1.07	1.17	1.21	1.09	1.03	0.905	0.765	0.698	0.62	0.656	0.643	0.687	0.683	0.615	0.596	0.635
NCI-H596	1.03	1.01	1.09	0.96	0.954	1.02	0.987	0.871	0.768	0.696	0.746	0.606	0.569	0.517	0.694	0.512	0.493	0.506	0.51	0.532
NCI-H647	1.1	1.15	1.16	1.06	1.27	0.958	1.04	1.14	1.04	0.949	0.52	0.658	0.659	0.434	0.851	0.194	0.189	0.154	0.191	0.177
NCI-H838	0.97	1.05	0.999	1.01	0.977	1.11	1.19	1.17	1.22	1.11	0.711	0.742	0.706	0.716	0.677	0.262	0.277	0.229	0.234	0.265
NCI-H1355	0.821	0.886	0.856	0.801	0.812	0.917	0.958	1.04	0.985	1.08	0.671	0.638	0.628	0.695	0.704	1.08	0.945	1.16	1.1	1.1
NCI-H1395	1.05	1.29	1.24	1.06	1.12	1.26	1.53	1.26	1.01	1.21	0.678	0.622	0.787	0.811	0.924	0.91	0.807	0.933	0.911	1.02
NCI-H1437	0.963	1.05	0.984	0.955	1.03	1.01	1.05	1.05	1.05	1.07	0.884	0.847	0.9	0.803	0.745	0.293	0.327	0.31	0.288	0.308
NCI-H1651	1.05	0.895	0.902	0.929	0.936	1.09	1.04	1.03	1.02	1.03	0.491	0.593	0.539	0.597	0.543	0.553	0.544	0.563	0.64	0.544
NCI-H1666	0.793	0.687	0.859	0.764	0.896	0.835	0.966	0.887	0.901	1.03	1.15	0.919	1.11	1.04	1.05	0.913	0.863	0.766	0.813	0.785

Cell Line	relative viability (Dovitinib + Linsitinib; first compound 0.02 µM)	relative viability (Dovitinib + Linsitinib; first compound 0.06325 µM)	relative viability (Dovitinib + Linsitinib; first compound 0.2 µM)	relative viability (Dovitinib + Linsitinib; first compound 0.6325 µM)	relative viability (Dovitinib + Linsitinib; first compound 2 µM)	relative viability (Dovitinib + Navitoclax; first compound 0.02 µM)	relative viability (Dovitinib + Navitoclax; first compound 0.06325 µM)	relative viability (Dovitinib + Navitoclax; first compound 0.2 µM)	relative viability (Dovitinib + Navitoclax; first compound 0.6325 µM)	relative viability (Dovitinib + Navitoclax; first compound 2 µM)	relative viability (Dovitinib + Vorinostat; first compound 0.02 µM)	relative viability (Dovitinib + Vorinostat; first compound 0.06325 µM)	relative viability (Dovitinib + Vorinostat; first compound 0.2 µM)	relative viability (Dovitinib + Vorinostat; first compound 0.6325 µM)	relative viability (Dovitinib + Vorinostat; first compound 2 µM)	relative viability (Dovitinib + Pemetrexed; first compound 0.02 µM)	relative viability (Dovitinib + Pemetrexed; first compound 0.06325 µM)	relative viability (Dovitinib + Pemetrexed; first compound 0.2 µM)	relative viability (Dovitinib + Pemetrexed; first compound 0.6325 µM)	relative viability (Dovitinib + Pemetrexed; first compound 2 µM)
NCI-H1734	0.961	0.862	0.843	0.902	0.833	0.876	0.826	0.849	0.851	0.822	0.832	0.773	0.784	0.785	0.875	0.443	0.442	0.414	0.403	0.418
NCI-H1755	0.968	0.976	0.94	1.01	0.998	1.02	1	1.02	0.992	1.05	0.798	0.83	0.884	0.935	0.776	0.432	0.382	0.433	0.4	0.423
NCI-H1793	0.964	0.679	0.856	0.754	0.834	0.407	0.359	0.456	0.476	0.373	1.01	0.753	0.751	0.891	0.773	1.27	0.735	0.96	0.916	0.943
NCI-H1915	1.09	1.09	1.08	1.09	1.05	0.797	0.749	0.767	0.752	0.801	0.469	0.502	0.531	0.499	0.531	0.459	0.466	0.536	0.473	0.467
NCI-H1944	1.14	1.18	1.15	1.22	1.18	1.01	0.995	1.02	1.08	1.1	0.502	0.702	0.646	0.583	0.64	0.583	0.649	0.677	0.739	0.597
NCI-H1975	0.903	0.954	0.915	0.934	1.09	1.07	1.01	1.09	1	1.2	0.692	0.728	0.662	0.734	0.682	0.305	0.286	0.268	0.294	0.294
NCI-H1993	0.774	0.678	0.657	0.695	0.808	1.07	0.963	0.965	1.02	0.934	0.929	0.754	0.823	0.76	0.943	0.665	0.521	0.633	0.594	0.486
NCI-H2009	1.16	1.18	1.15	1.2	1.2	1.14	1.15	1.2	1.19	1.19	0.72	0.744	0.747	0.736	0.829	0.967	1.06	1.03	0.979	1.03
NCI-H2023	0.744	0.638	0.734	0.741	0.595	0.996	1.03	1.04	0.945	0.929	0.532	0.745	0.818	0.683	0.579	0.205	0.232	0.238	0.216	0.19
NCI-H2085	0.927	1.08	1.07	0.913	0.917	1.05	1.09	1.08	1.07	1.1	0.808	0.821	0.819	0.765	0.801	0.941	0.991	1.03	0.871	0.958
NCI-H2087	0.953	0.943	1.09	1	0.825	1.07	0.941	1.01	1.07	0.981	0.817	0.79	0.685	0.837	0.803	0.755	0.668	0.661	0.716	0.616
NCI-H2126	0.697	0.691	0.748	0.747	0.696	0.857	0.886	0.874	0.81	0.873	0.811	0.819	0.798	0.876	0.838	0.734	0.653	0.676	0.705	0.711
NCI-H2228	0.789	0.632	0.669	0.967	0.633	0.897	1.16	0.833	0.908	0.885	0.559	0.81	0.402	0.79	0.6	0.258	0.344	0.324	0.33	0.321
NCI-H2347	0.997	0.892	0.953	0.978	0.969	0.892	0.812	0.86	0.707	0.932	0.694	0.647	0.561	0.692	0.686	0.479	0.53	0.415	0.467	0.475
NCI-H2405	0.954	0.873	0.971	0.873	1.05	0.897	0.836	0.86	0.807	1.32	0.99	0.961	1.07	1.06	1.17	1.05	1.02	1.25	1.08	1.11
NCI-H3122	1	0.95	1.07	1.1	0.991	1.05	1.03	0.954	1.02	1.07	0.823	0.91	1.07	0.951	1.08	0.194	0.207	0.199	0.186	0.189
